Key:
[1] = tested on: mGAT1 protein; assay: Western immunoblotting with anti-GAT1 antibodies, MDMA-treated mice; type: in vivo; conditions: for GAT1 protein, fold of control: SERT knockout (−/−) mice; for Increase of GAT1 immunoreactivity: wild type mice
Procedure: (§1) Young adult male C57BI/6J mice (2-3 months old) were injected intraperitoneally with 0.25 ml saline (control) or saline containing MDMA (10 mg/kg). Unless otherwise indicated, mice were sacrificed 2 hr after drug treatment and frontal cortex and/or midbrain were rapidly dissected in ice-cold saline. The dissected brain tissue was frozen on dry ice, 0.5 ml Tri Reagent was added, and samples were stored at −70° C. Serotonin transporter knockout mice (−/−) (Bengel et al., 1998) were used when indicated.
Protein was isolated with Tri Reagent according to the protocol provided by the manufacturer. After precipitation with isopropanol, the protein pellet was washed three times with 0.3M guanidine hydrochloride and 95% ethanol, followed by washing with ethanol, dried, and dissolved in 10 M urea containing 50 mM dithiothreitol (DTT). Samples were kept at room temperature for 1 hr before boiling for 3 minutes, sonicated on ice for 2 minutes, and stored at −20° C. Protein concentration was determined with the micro BCA protein assay reagent kit. Samples of 30 μg protein run on SDS-PAGE (5% stacking gel and 8% or 10% separating gel), with Kaleidoscope pre-stained standard proteins as molecular weight markers. The proteins were transferred to nitrocellulose membranes preincubated for 2 hr in Tris-buffered saline (TBS) with 10% non-fat dry milk and 0.1% Tween 20, and incubated overnight at 4° C. or 2 hr at room temperature with anti-GAT1 antibodies (1:500 in TBS containing 5% non-fat dry milk). Membranes were then washed three times with TBS containing 0.1% Tween 20, incubated for 2 hr at room temperature with the second antibody, horseradish peroxidase coupled to F(ab)2 anti-rabbit IgG, washed four times with the same buffer, and subjected to ECL Western immublotting detection reagents.
It was essential to determine whether the MDMA-induced increase in mGAT1 mRNA was correlated with a similar change in protein level. […] These anti-GAT1 antibodies were also useful to verify MDMA effect on the expression of mGAT1 in the SERT knockout mice (−/−) that behaviorally are nonresponsive to MDMA (Bengel et al., 1998).

[2] = tested on: mGAT1; assay: Semi-quantitative RT-PCR of brain mRNA of MDMA-treated mice; type: in vivo; conditions: for Increase of mGAT1 expression, estimated by scanning: MDMA 10 mg/kg i.p., 2 hr, GAPDH as standard
[3] = tested on: mGAT4; assay: as above; type: in vivo; conditions: for Increase of mGAT4 mRNA level: MDMA 10 mg/kg i.p., 2 hr, GAPDH for semi-quantitation; for Return of mGAT4 increase to control levels: within 2 days
[4] = tested on: MC2, MG2 and MG4 cDNAs; assay: as above; type: in vivo; conditions: FIG. 2B, MDMA 10 mg/kg i.p., 2 hr
[5] = tested on: MG3 cDNA; assay: DD-PCR analysis of brain mRNA of MDMA-treated mice; type: in vivo; set-up: key: − (lowest); ++ (highest); conditions: MDMA one i.p. injection, 10 mg/kg, 2 hr
Procedure: as §1
(§2) Frontal cortex or midbrain samples frozen with Tri Reagent were crushed, 1 ml Tri Reagent was added and total RNA was isolated according to the manufacture's protocol. RNA samples were treated with RNase-free DNase I for 30 minutes at 37° C. and RNA quality and yield was verified on 1.2% formaldehyde agarose gel. First-strand cDNA was prepared from 0.5 μg total RNA as template and 0.8 μM (dT)12GC, (dT)12CC or oligo(dT)18 as a primer, using Superscript amplification kit. DD-PCR (differential display-PCR) was carried out in 20 μl total volume, and included 0.8 μM of one of the 3′ primers (dT)12GC, (dT)12CC or (dT)12, the arbitrary 5′ primer 5′-GGACAGCTTC-3′, 2.5 μM dNTP, 2.5 mM MgCl2, 2 μCi α-^33P-[dATP] (3000 Ci/mM), cDNA prepared from 50 ng total RNA, and 2.5 units of Taq DNA polymerase. The DD-PCR reaction was started with 3 minutes incubation at 94° C., followed with 40 cycles of 30 sec at 94° C., 2 minutes at 40° C. and 30 sec at 72° C., and finally 5 minutes at 72° C. Then, 10 μl of the reaction was mixed with 10 μl of 95% formamide containing 0.05% bromophenol blue and 0.05% xylene cyanol, and incubated for 5 minutes at 75° C. An aliquot (6 μl) was analysed on a denatured DNA sequencing gel. The gel was dried and exposed to Phosphoimage Analyzer (Fujix) or to X-ray film. The DNA bands expressed differentially upon MDMA-treatment were identified, cut from the gel, socked in H2O, boiled for 15 minutes and centrifuged (10000 g). Ten μl of the supernatant was used as template to re-amplify the band of interest, with the same primers and PCR conditions described for DD-PCR except that 25 μM dNTP and no isotopes were used. Ten μl of the PCR reaction was run on a 2% agarose gel. The band of the predicted size was excised, purified with DNA extraction kit, and cloned into pGEM-T Easy Vector. Plasmid DNA from successful clones was purified with Plasmid Mini Kit and subjected for sequencing (Biological Services, Weizmann Institute of Science). Sequence data were compared with GeneBank (NCBI).
(§3) Total RNA from frontal cortex (“FC”) and midbrain (“MB”) of saline—(denoted as “−”) and MDMA-treated (denoted as “+”) mice (one i.p. injection, 10 mg/kg, 2 hr) were used for DD-PCR analysis. The random primers used were dT12CC for MC1, dT12GG for MG3, MG4, MG5 and MG6, and dT18 for G1. Different but characteristic cDNA products were obtained with each one of the three primers. […] Some of the altered expression levels are common for both brain regions while others are specific either to the frontal cortex or the midbrain.

[6] = tested on: MC2 cDNA; assay: DD-PCR analysis of brain mRNA of MDMA-treated mice; type: in vivo; set-up: key: − (lowest); ++ (highest); conditions: MDMA one i.p. injection, 10 mg/kg, 2 hr
Procedure: as §1, §2, §3

[7] = tested on: MG5 cDNA; assay: DD-PCR analysis of brain mRNA of MDMA-treated mice; type: in vivo; set-up: key: − (lowest); ++ (highest); conditions: MDMA one i.p. injection, 10 mg/kg, 2 hr
Procedure: as §1, §2, §3

[8] = tested on: MG2 cDNA; assay: DD-PCR analysis of brain mRNA of MDMA-treated mice; type: in vivo; set-up: key: − (lowest); ++ (highest); conditions: MDMA one i.p. injection, 10 mg/kg, 2 hr; frontal cortex
Procedure: as §1, §2, §3

[9] = tested on: GAPDH; assay: Real-time PCR analysis of midbrain RNA of MDMA-treated mice; type: in vivo
Procedure: as §1
(§4) Real-time PCR analysis was performed with the LightCycler System (Roche Molecular Biochemicals) and LightCycler-FastStart DNA Master SYBR Green I, according to the manufacturer instructions. Reactions (in 20 μl) included template cDNA prepared from 0.1-0.5 μg total RNA, 3 mM MgCl2 and 0.25-0.5 μM primers. Buffer, dNTP mixture (with dUTP instead of dTTP), Taq DNA polymerase, and SYBR Green I dye were included in the ‘Hot start’ reaction as recommended. Typical protocol was as follows. Ten minutes at 95° C. followed by 40 cycles of amplification, starting with 15 sec at 95° C., 10 sec at 60° C. and 10 sec at 72° C. The extension period varied with each specific primer, depending on the product length (about 1 sec/25 bp).
(§5) For quantification analysis, 3-5 standards of PCR products with known concentration were amplified under the same cycling conditions, and GAPDH was amplified as an internal control to correct for variations in the amount of cDNA. Real-time PCR products of each assay were also subjected to agarose gel electrophoresis, to further confirm amplification specificity. Quantitation was assessed with LightCycler Data Analysis (LCDA) software by the Fit Points method. Melting curve of the cDNA product was determined by incubation at 95° C. for 0 sec, 15 sec at 65° C. and 0 sec at 95° C., followed by a cooling of 30 sec at 40° C.
(§6) RNA extracted from the midbrain of saline- or MDMA-treated mice was analyzed with the LightCycler System, using specific primers for mGAT1 and mGAT4, along with GAPDH as a control (see Materials and Methods). […] (FIG. 4F).

[10] = tested on: mGAT4; assay: as above; type: in vivo
Procedure: as §1, §4, §5, §6

[11] = tested on: mGAT1; assay: as above; type: in vivo
Procedure: as §1, §4, §5, §6

[12] = tested on: mGAT2; assay: Semi-quantitative RT-PCR of brain mRNA of MDMA-treated mice; type: in vivo
[13] = tested on: MC1 cDNA; assay: DD-PCR analysis of brain mRNA of MDMA-treated mice; type: in vivo; set-up: key to Intensity of MC1 cDNA band, MDMA, F. Cortex / Intensity of MC1 cDNA band, MDMA, MidBrain: − (lowest); ++ (highest); conditions: 2 hr
Procedure: as §1
as §2, with “Ten μl of the supernatant was used as template to re-amplify the band of interest, with the same primers and PCR conditions described for DD-PCR except that 25 μM dNTP and no isotopes were used. Ten μl of the PCR reaction was run on a 2% agarose gel. The band of the predicted size was excised, purified with DNA extraction kit, and cloned into pGEM-T Easy Vector. Plasmid DNA from successful clones was purified with Plasmid Mini Kit and subjected for sequencing (Biological Services, Weizmann Institute of Science). Sequence data were compared with GeneBank (NCBI).” left out

[14] = tested on: G1 cDNA (mGAT1); assay: DD-PCR analysis of brain mRNA of MDMA-treated mice; type: in vivo; set-up: key to Intensity of G1 cDNA band, MDMA, F. Cortex: − (lowest); ++ (highest); conditions: 2 hr
Procedure: as §1
Frontal cortex or midbrain samples frozen with Tri Reagent were crushed, 1 ml Tri Reagent was added and total RNA was isolated according to the manufacture's protocol. RNA samples were treated with RNase-free DNase I for 30 minutes at 37° C. and RNA quality and yield was verified on 1.2% formaldehyde agarose gel. First-strand cDNA was prepared from 0.5 μg total RNA as template and 0.8 μM (dT)12GC, (dT)12CC or oligo(dT)18 as a primer, using Superscript amplification kit. DD-PCR (differential display-PCR) was carried out in 20 μl total volume, and included 0.8 μM of one of the 3′ primers (dT)12GC, (dT)12CC or (dT)12, the arbitrary 5′ primer 5′-GGACAGCTTC-3′, 2.5 μM dNTP, 2.5 mM MgCl2, 2 μCi α-^33P-[dATP] (3000 Ci/mM), cDNA prepared from 50 ng total RNA, and 2.5 units of Taq DNA polymerase. […] An aliquot (6 μl) was analysed on a denatured DNA sequencing gel. […]

[15] = tested on: MDMA acute toxicity in mice; assay: Protective activity against MDMA acute toxicity (survival) in mice; type: in vivo, C57B1/6J mice; conditions: inhibitor i.p. 5-120 minutes before toxic dose of MDMA; FIG. 6A
Procedure: Next step was to determine whether compounds blocking the enhanced expression of GABA transporters may restraint MDMA-induced hyperthermia. We ran trials to determine whether the mortality levels causes by MDMA administration would be affected by treatment with suspected GABA transporter inhibiting compounds Tiagabine, nipecotic acid derivative NO-711, and Vigabatrin which have been used hitherto as anti-epileptics.
Mice were administered dose(s) of mg/ml of MDMA according to the following schedule and were […] injected with a dose of the GABA transporter blocker. In the first set of experiments the effective toxic dose of MDMA was determined. C57B1/6J mice, 2-3 months old, 6 mice in each group, were tested with different concentration of the drug, prepared in saline and injected intraperitoneally. Saline solution was used as a control. The lowest concentration of the drug causing 100% death within 60 minutes was used in the following experiments. Mice (8 in each group) were injected (i.p.) with different concentrations of the tested GABA transporter inhibitor, or other compound, and 5-120 minutes later were injected with the toxic dose of MDMA. […]

[16] = MDMA one i.p. injection, 10 mg/kg, frontal cortex
[17] = both frontal cortex and midbrain, MDMA 10 mg/kg i.p.

CNC(C)Cc1ccc2c(c1)OCO2 (centres unmarked) [MDMA, 3,4-Methylenedioxymethamphetamine]
GAT1 protein, fold of control ([1]; frontal cortex): 1.3 fold | GAT1 protein, fold of control ([1]; midbrain): 1.0 fold | Induction of GAT1 protein upon MDMA treatment ([1]; SERT −/− mice): no significant induction | Increase of GAT1 immunoreactivity ([1]; frontal cortex): 2.1 fold | Increase of GAT1 immunoreactivity ([1]; midbrain): 2.4 fold | Increase of mGAT1 expression, estimated by scanning ([2]; frontal cortex): 1.58 fold | Increase of mGAT1 expression, estimated by scanning ([2]; midbrain): 1.74 fold | Time for which MDMA effect on mGAT1 expression sustained ([2]; time course 2 hours-7 days after treatment): 7 days | Increase of mGAT4 mRNA level ([3]; frontal cortex): 4.6 fold | Return of mGAT4 increase to control levels ([3]; frontal cortex): partially | Increase of mGAT4 mRNA level ([3]; midbrain): 1.7 fold | Return of mGAT4 increase to control levels ([3]; midbrain): completely | MDMA-induced changes of MC2, MG2 and MG4 expression [4]: 1.5-2.2 fold | Intensity of MG3 cDNA band, MDMA, F. Cortex ([5]; frontal cortex): − | Intensity of MG3 cDNA band, MDMA, MidBrain ([5]; midbrain): − | Intensity of MC2 cDNA band, MDMA, MidBrain [6]: ++ | Intensity of MG5 cDNA band, MDMA, F. Cortex ([7]; frontal cortex): − | Intensity of MG5 cDNA band, MDMA, MidBrain ([7]; midbrain): − | Intensity of MG2 cDNA band, MDMA, F. Cortex [8]: ++ | Increase of GAPDH level [9]: 19% | GAPDH level after MDMA treatment (real-time PCR amount) ([9]; control 514×10^−5 pmole): 0.00612 pmol | Increase in mGAT4/GAPDH ratio compared with controls [10]: 1.52 fold | Net increase in mGAT1 levels (corrected for GAPDH) [11]: 5.2 fold | mGAT1 expression after MDMA treatment (real-time PCR amount) ([11]; control 3.43×10^−5 pmole): 0.000211 pmol | Effect on mGAT2 expression ([12]; MDMA 10 mg/kg i.p., 2 hr, frontal cortex and midbrain): insignificant effect | mGAT2 expression in time course ([12]; from 2 hours to 7 days after treatment): did not change | Intensity of MC1 cDNA band, MDMA, F. Cortex [13, 16]: − | Intensity of MC1 cDNA band, MDMA, MidBrain ([13]; MDMA one i.p. injection, 10 mg/kg, midbrain): − | Change of cDNA band MC1 in MDMA-treated mice (FIG. 1B) [13, 17]: profound decrease | Intensity of G1 cDNA band, MDMA, F. Cortex [14, 16]: ++ | Change of intensity of cDNA G1 in MDMA-treated mice (FIG. 1C) [14, 17]: increased

Cc1ccsc1C(=CCCN1CCC[C@@H](C(=O)O)C1)c1sccc1C [Tiagabine, (R)-1-[4,4-Bis(3-methyl-2-thienyl)-3-butenyl]-3-piperidinecarboxylic acid]
Survival of MDMA-treated mice [15]: significantly improved the survival
